The text below walks through data of patent US6444837B1, “Synthesis and antiviral activity of a series of pyrophosphate analogs” (University of Southern California, priority 1998, dated 2002).

Data set [1] has as its target HIV reverse transcriptase (Human immunodeficiency virus type 1 group M subtype B, UniProt P03366). The following applies: HIV RT; cited from earlier work.
The conditions of data set [2]: in vivo; cited from earlier work.
Data set [3] concerns HHV-8. Nature of the data set: quantitative PCR-based (Taqman) assay for agents active against HHV-8 in TPA-induced BCBL-1 cells. The class given is cell-based, human herpesvirus 8. As for the experimental part: 3. […] Samples were incubated at 37° C. for 30 minutes.
4. […] Total reaction volumes were 50 μL.
(In qPCR the cycle at which signal appears reflects the starting amount.)

The test system of data set [4] is Cytomegalovirus (CMV). The conditions noted are these: clinical trials, AIDS patients; cited from earlier work.
A short description of data set [5]: XTT-tetrazolium assay of compound toxicity to host cells. It counts as cell-based. The conditions noted are these: human; Table IV, six concentrations; read-out: TC50.
Procedure: Culturing these cells in the presence of phobol ester induces a lytic infection cycle, resulting in the release of viral particles into the medium. Compound efficacy in this proposed assay was determined using the Taqman PCR technology, and compound toxicity to host cells was assessed using an XTT-tetrazolium assay.
1. BCBL-1 cells were counted by the trypan blue dye exclusion method, and the cell count/mL was determined. Cells were pelleted by centrifugation and washed once with PBS to minimize the basal level of virus released from untreated cells which spontaneously enter the lytic cycle and release virus.
2. Cells were resuspended in fresh media and adjusted to a cell density of 1×10^5 per mL. Cells were then plated in the interior wells of 96-well round-bottom microtiter plates in a volume of 50 μL per well.
3. The phorbol ester TPA was added to appropriate wells in a volume of 50 μL per well to yield a final concentration of 20 ng/mL. Medium was added in place of TPA in three wells to serve as a negative control.
4. Test compounds were diluted in DMSO to a stock concentration which is 400× the desired high concentration. These compounds were further diluted in complete medium in 1.2 mL titertubes to yield a solution which is 2× the desired high concentration. […]
2. […] Plates were read on UVMax microtiter plate reader at a wavelength of 450/650 nm.

Where only a bound is given, the exact number is not on record here.

By IC50 is commonly meant the concentration at which inhibition is half-maximal. For the compound `O=C(O)P(=O)(O)O` [Foscarnet, Trisodium phosphonoformate], the IC50 in data set [1] is roughly 1 µM; in data set [3] (Human gammaherpesvirus 8, BCBL1, Table IV, six concentrations, Foscarnet value is average of six separate tests), 7.7 µM. In addition, the oral bioavailability result in data set [2] is “low”. Further, the “TI (therapeutic index)” value in data set [3] is given as greater than 38.9. Besides, in data set [3] (Table IV, by TI), the result was active. For the same compound, the “efficacy in treatment of CMV infection” value in data set [4] was “efficacious”. For the same compound, the nephrotoxicity entry in data set [4] is on record as “reversible nephrotoxicity”. Further, the CC50 at 6 days in data set [5] is greater than 300 µM.

As for `CCCCCCCCCCCCCCOC(=O)P(=O)([O-])OC.[Na+]` [ID# 8], the “antiviral activity against HHV-8 (in words)” value in data set [3] (bioassay with HHV-8) is “moderate to relatively high antiviral activity”.
